Source: patent US20200109421A1, “METHODS FOR INTEGRATION OF TRANSGENE DNA” (Selexis S.A., priority 2018, published 2020)
“Also recorded” adds a separate entry of the source.

Experiments:
SURE CHO-M cells [1] = test: Cell synchronization combined with DNA repair pathway modulators: CSA of trastuzumab IgG-producing cells; assay type: cell-based, Chinese hamster; settings: for proportion of high-expressing cells: immediately after transfection, in combination with S and G2 arrest
Method: Freshly transfected cells were incubated in presence of various NHEJ, HR, MMEJ or SSA modulators immediately after electroporation to identify the DNA repair pathway involved in transgene integration and depending on the targeted cell cycle phase.

SURE CHO-M cell line [2] = test: Cell cycle analysis of CHO cells by propidium iodide DNA content flow cytometry; assay type: cell-based, Chinese hamster; settings: overnight in medium; DMSO 1%, APH 1 μM, MTX 1 uM, NOCO 1.5 μM
Method: SURE CHO-M cell™ line (SELEXIS SA, Switzerland, see: U.S. Pat. Nos. 7,129,062, 8,252,917 and 9,879,297, and U.S. Patent Applications No. 20110061117 and 20120231449, the disclosures of which are incorporated herein by reference in their entirety) were cultivated overnight in asynchronous condition (FIG. 1A) or in presence of DMSO 1%, aphidicholin (APH) 1 μM, methotrexate (MTX) 1 uM or nocodazole (NOCO) 1.5 μM (FIG. 1B). Cells were then fixed in ethanol and labelled overnight at 4° C. with propidium iodide (PI; 50 μg/ml, Sigma) in presence of RNAse (0.5 μg/ml, Sigma). DNA content index histograms were acquired on Guava EasyCyte System® using INCYTE acquisition software. Each phase of cell cycle was defined according to the drug treatment as G1 arrest (DMSO); S phase (APH); G2 (NOCO). The % of G0/G1, % of S and % of G2/M arrested cells were then calculated (see Table FIG. 1B).
Cell cycle was analyzed by flow cytometry at release (18 h with drug) and at 1, 2, 4, 6 and 8 h after release. Released cells were then further cultivated according to the indicated time points. Asynchronous (control) cells were included as controls. DNA content index histograms were acquired on Guava EasyCyte System® (MILLIPORE) using INCYTE acquisition software.

SURE CHO-M cells [3] = test: Cell synchronization with plasmid or CRISPR/Cas-mediated transgene integration: fed-batch PCD; parameters: species or system Chinese hamster; settings: G1 synchronization, DMSO 1% overnight, plasmid-based and CRISPR/Cas9-mediated expression system
Method: Asynchronous and synchronized cells were transfected with IgG-trastuzumab expressing vectors and cultivated under antibiotic selection for 10 days.
Stable expressing pools were subcultivated in complete culture medium for 4 subsequent passages in spin tubes (5 ml wv) (FIG. 4B). Cell density (Cv·ml^−1) and IgG titer values (μg·ml^−1) were determined. […] Growth and performance of each stable established IgG-expressing pool was then evaluated in spin tube in a 9-day fedbatch process using Acto CHO A+B feed (GE Healthcare). Fed-batch cultures were initiated at cell concentrations of 0.3×10^6 cells/ml in 5 mL working volume run. (FIG. 4C). The specific IgG productivity was determined as the slope of IgG concentration versus the integral number of viable cells (IVCD) and expressed as pg per cell and per day (pcd). Histograms represented the fold change of productivity per cell per day (PCD) obtained for DMSO and 4° C. pre-treatment compared to their respective untreated-controls cells.

SURE CHO-M cell line [4] = test: eGFP expression after transfection of synchronized CHO cells (cytometer imager); assay type: cell-based, Chinese hamster; settings: day 2 and day 11 after transfection; synchronized prior to transfection vs non-synchronized cells
Method: (§1) Asynchronous and synchronized SURE CHO-M cell™ lines (SELEXIS SA, Switzerland) were transfected with eGFP- (FIG. 1E) or Trastuzumab IgG-expression SLX-vectors (FIG. 1F and FIG. 1G) immediately after drugs release. Transfection was done by microporation (NEON TRANSFECTION SYSTEM, INVITROGEN), generating a heterogeneous pool of transfected cells. 24 h after transfection, 5 ug/ml puromycin selection agent (GIBCO) was added to the BalanCD medium (IRVINE) supplemented with 6 mM L-Glutamine (HYCLONE). Expression pools performances were then evaluated for GFP or IgG at different time points after transfection. The percentage and GFP fluorescence mean intensity (FMI) level were evaluated on cytometer imager at d2 and d11 post-transfection (CELIGO S; NEXCELOM). Results were represented as fold change of control cells (FIG. 1E; histograms).

SURE CHO-M cell line [5] = test: Cell Secretion Assay (CSA) of Trastuzumab IgG-producing cells after synchronization; assay type: cell-based, Chinese hamster; settings: 2 days post-transfection; vs asynchronized cells
Method: as §1
The percentage and secretion mean intensity (SMI) of IgG-producing cells were determined at d2 (FIG. 1F) and d10 (FIG. 1G) post-transfection using Cell Secretion Assay methods (CSA).

SURE CHO-M cells [6] = test: Cell recovery during antibiotic selection after synchronization and DNA repair modulation; settings: S- and G2-synchronized cells, with DNA repair pathways inhibition
Method: SURE CHO-M cells™ (SELEXIS SA, Switzerland) were synchronized overnight with DMSO 1%, aphidicolin (APH) 1 μM, methotrexate (MTX) 1 μM or nocodazole (NOCO) 1.5 μM. After 18 hrs of incubation, cells were centrifuged, rinse twice into PBS 1× and resuspended in complete culture medium. Asynchronous and synchronized cells were transfected with trastuzumab IgG-plasmid expressing vector. Freshly transfected cells were then immediately resuspended and incubated overnight in presence of NU7441, RI-1, RS-1 or Olaparib small molecules (drugs provided by TOCRIS, CALBIOCHEM or APEXBIO TECHNOLOGY) before to change medium and start antibiotic selection.
Cell recovery behavior during antibiotic selection was monitored for each transfection condition and recorded as + or − signs.

SURE CHO-M cells [7] = test: IgG transfection in presence of Sbf1 restriction enzyme and NU7441: CSA of stable cells; assay type: cell-based, Chinese hamster; settings: Sbf1 present
Method: Asynchronized (AS) or G1-synchronized (G1) SURE CHO-M cells' (SELEXIS SA, Switzerland) were transfected with trastuzumab IgG-expressing vector in presence of Sbf1 restriction enzyme. Transfected cells were incubated overnight in presence of the NHEJ inhibitor—NU7441 ([…])—before change of medium and start antibiotic selection. The histograms show cell secretion assay (CSA) as percentage (white bar) and secretion mean intensity (SMI) (grey bar) of total producing cells (FIG. 6A) or of the high-, medium- and low-producing subpopulations (FIG. 6B) performed on stable trastuzumab-expressing cells.

SURE CHO-M cells [8] = test: Nu7441 treatment before transfection: productivity in 9-day fedbatch (ELISA titer, PCD); assay type: cell-based, Chinese hamster; settings: 0.4 μM just before transfection
Method: SURE CHO-M cells™ (SELEXIS SA, Switzerland) were treated with 0.4 μM of DNA-PK inhibitor Nu7441 (TOCRIS) just before transfection of 3 μg of the antibody DNA fragment, respectively Trastuzumab (Tras) or Adalimumab (ADA). Transfection was done by microporation (Neon Transfection system, Invitrogen). 24 h after transfection, 5 μg/ml puromycin selection agent (Gibco) was added.
Growth and performance of the 6 top clones of each enzymatic condition were evaluated in spin tube in a 9-day fedbatch process using Acto CHO A+B feed (GE Healthcare). Fed-batch cultures were initiated at cell concentrations of 0.3×10^6 cells/ml in 5 mL working volume run. Cell density and cell viability along the process were evaluated by using a Guava System (Millipore) and supernatant sample was collected. Antibody product titer was evaluated by ELISA capture assay against the collected supernatant, at day 9 of the fedbatch process. Productivity per cell per day (PCD) was calculated as function of titer and viable cell density during the fedbatch process.

[9] = after 10 days of antibiotic selection, NU7441 0.4 mM overnight, AS_NU and G1_NU vs AS and G1

In the case of C[S+](C)[O-] [DMSO, dimethyl sulfoxide], the “high-producing subpopulation (% HP) of stable IgG-producing cells” value (SURE CHO-M cells [1]; after 10 days of antibiotic selection, G1-synchronized, with or without DNA repair modulators, vs asynchronous controls) is reported as “increase”, the “cell cycle phase at which cells are arrested” value (“cell cycle phase” for short) (SURE CHO-M cell line [2]) is reported as “G1 arrest; also recorded: G1 phase” and the “productivity (fold change of PCD vs untreated control cells)” value (SURE CHO-M cells [3]) is reported as “significant increase”.
With C[C@@]1(CO)[C@H](O)CC[C@@]2(C)[C@H]1CC[C@H]1C[C@@H]3C[C@@]12CC[C@]3(O)CO [APH, aphidicolin] the “cell cycle phase” value (SURE CHO-M cell line [2]) was “S phase”.
O=C(c1cc(Cc2n[nH]c(=O)c3ccccc23)ccc1F)N1CCN(C(=O)C2CC2)CC1 [Olaparib] was tested, and the “proportion of high-expressing cells” value (SURE CHO-M cells [1]) was “higher”.
COC(=O)Nc1nc2ccc(C(=O)c3cccs3)cc2[nH]1 [NOCO, nocodazole] was tested, and the “mean intensity of GFP-expressing cells” value (SURE CHO-M cell line [4]) was “higher”, the “percentage of GFP-expressing cells” value (SURE CHO-M cell line [4]) was “higher” and the “% of Trastuzumab-expressing cells” value (SURE CHO-M cell line [5]) was “higher”. The “mean intensity of Trastuzumab-expressing cells” value (SURE CHO-M cell line [5]) was “higher” and the “cytotoxic effect (cells failed to pass the antibiotic selection)” value (SURE CHO-M cells [6]) was “lethal cytotoxic effect”.
With CN(Cc1cnc2nc(N)nc(N)c2n1)c1ccc(C(=O)N[C@@H](CCC(=O)O)C(=O)O)cc1 [MTX, methotrexate] the “cell cycle phase” value (SURE CHO-M cell line [2]) was “G1/S phase”, the “mean intensity of GFP-expressing cells” value (SURE CHO-M cell line [4]) was “higher” and the “percentage of GFP-expressing cells” value (SURE CHO-M cell line [4]) was “higher”. For the same compound, the “% of Trastuzumab-expressing cells” value (SURE CHO-M cell line [5]) was “higher”, the “mean intensity of Trastuzumab-expressing cells” value (SURE CHO-M cell line [5]) was “higher” and the “cytotoxic effect (cells failed to pass the antibiotic selection)” value (SURE CHO-M cells [6]) was “lethal cytotoxic effect”.
For O=c1cc(N2CCOCC2)oc2c(-c3cccc4c3sc3ccccc34)cccc12 [Nu7441], the “proportion of high-expressing cells” value (SURE CHO-M cells [1]) was “higher”, the “high- and medium-producing cells subpopulations” value (SURE CHO-M cells [7]; G1 phase synchronized and Nu7441 treated, after 10 days selection) was “significant increase” and the “mean intensity of IgG-expressing cells” value (SURE CHO-M cells [7]; [9]) was “higher”. For the same compound, the “percentage of IgG-expressing cells” value (SURE CHO-M cells [7]; [9]) was “higher”, the “proportion of IgG-producing cells” value (SURE CHO-M cells [7]; combination with G1 phase synchronization (G1_NU compared to AS)) was “best” and the “productivity per cell per day (PCD)” value (SURE CHO-M cells [8]; Trastuzumab) was “clear increased”. The “productivity per cell per day (PCD)” value (SURE CHO-M cells [8]; adalimumab) was “less evident” and the “productivity (antibody product titer)” value (SURE CHO-M cells [8]; both antibody molecules (Trastuzumab, Adalimumab)) was “increase”.
In the case of O=C1C(Cl)=C(N2CCOCC2)C(=O)N1c1ccc(Cl)c(Cl)c1 [RI-1], the “proportion of high-expressing cells” value (SURE CHO-M cells [1]) is reported as “higher”.
